According to ChEMBL document CHEMBL3822358 (J Med Chem, 2016):

tested on: not listed separately; experiment: cells; conditions: Homo sapiens, KARPAS-299, 72 h
Description: Antiproliferative activity against human ALK-positive KARPAS299 cells assessed as reduction in cell viability measured after 72 hrs by CellTiter 96 aqueous one solution cell proliferation assay

Row | SMILES | IC50
1 | COc1cc(OC2CCN(C)CC2)ccc1Nc1ncc(Cl)c(Nc2ccccc2P(C)(C)=O)n1 | 55.5 nM
2 | COc1cc(N2CCC(O)CC2)ccc1Nc1ncc(Cl)c(Nc2ccccc2P(C)(C)=O)n1 | 70.4 nM

tested on: not listed separately; experiment: AUC (0 to 24 hrs) in mouse at 10 mg/kg, po by LC-MS/MS analysis; assay type: ADME, organism-based; parameters: time < 24 hr, dose 10 mg/kg, route oral; conditions: in vivo

Row | SMILES | AUC(0-t) at 24 h
3 | COc1cc(OC2CCN(C)CC2)ccc1Nc1ncc(Cl)c(Nc2ccccc2P(C)(C)=O)n1 | 951 ng·h/mL
4 | COc1cc(N2CCC(O)CC2)ccc1Nc1ncc(Cl)c(Nc2ccccc2P(C)(C)=O)n1 | 13300 ng·h/mL

tested on: not listed separately; experiment: Oral bioavailability in CD rat at 10 mg/kg by LC-MS/MS analysis; assay type: ADME, organism-based; conditions: in vivo

Row | SMILES | bioavailability
5 | COc1cc(OC2CCN(C)CC2)ccc1Nc1ncc(Cl)c(Nc2ccccc2P(C)(C)=O)n1 | 55%
6 | COc1cc(N2CCC(O)CC2)ccc1Nc1ncc(Cl)c(Nc2ccccc2P(C)(C)=O)n1 | 64%

tested on: not listed separately; experiment: Clearance in CD rat at 3 mg/kg, iv by LC-MS/MS analysis; assay type: ADME, organism-based; conditions: in vivo

Row | SMILES | clearance
7 | COc1cc(OC2CCN(C)CC2)ccc1Nc1ncc(Cl)c(Nc2ccccc2P(C)(C)=O)n1 | 9.83 mL/min/kg
8 | COc1cc(N2CCC(O)CC2)ccc1Nc1ncc(Cl)c(Nc2ccccc2P(C)(C)=O)n1 | 10.7 mL/min/kg

tested on: not listed separately; experiment: Cmax in CD rat at 10 mg/kg, po by LC-MS/MS analysis; assay type: ADME, organism-based; parameters: dose 10 mg/kg, route oral; conditions: in vivo

Row | SMILES | Cmax
9 | COc1cc(OC2CCN(C)CC2)ccc1Nc1ncc(Cl)c(Nc2ccccc2P(C)(C)=O)n1 | 659 ng/mL
10 | COc1cc(N2CCC(O)CC2)ccc1Nc1ncc(Cl)c(Nc2ccccc2P(C)(C)=O)n1 | 772 ng/mL

tested on: not listed separately; experiment: Volume of distribution at steady state in CD rat at 3 mg/kg, iv by LC-MS/MS analysis; assay type: ADME, organism-based; conditions: CD, in vivo, read-out: Vdss

Row | SMILES | Vd
11 | COc1cc(OC2CCN(C)CC2)ccc1Nc1ncc(Cl)c(Nc2ccccc2P(C)(C)=O)n1 | 2.89 L/kg
12 | COc1cc(N2CCC(O)CC2)ccc1Nc1ncc(Cl)c(Nc2ccccc2P(C)(C)=O)n1 | 2.74 L/kg

biological target: Insulin receptor (Homo sapiens, UniProt P06213); experiment: not given; conditions: not given
Sequence (P06213 28-758 limits assumed): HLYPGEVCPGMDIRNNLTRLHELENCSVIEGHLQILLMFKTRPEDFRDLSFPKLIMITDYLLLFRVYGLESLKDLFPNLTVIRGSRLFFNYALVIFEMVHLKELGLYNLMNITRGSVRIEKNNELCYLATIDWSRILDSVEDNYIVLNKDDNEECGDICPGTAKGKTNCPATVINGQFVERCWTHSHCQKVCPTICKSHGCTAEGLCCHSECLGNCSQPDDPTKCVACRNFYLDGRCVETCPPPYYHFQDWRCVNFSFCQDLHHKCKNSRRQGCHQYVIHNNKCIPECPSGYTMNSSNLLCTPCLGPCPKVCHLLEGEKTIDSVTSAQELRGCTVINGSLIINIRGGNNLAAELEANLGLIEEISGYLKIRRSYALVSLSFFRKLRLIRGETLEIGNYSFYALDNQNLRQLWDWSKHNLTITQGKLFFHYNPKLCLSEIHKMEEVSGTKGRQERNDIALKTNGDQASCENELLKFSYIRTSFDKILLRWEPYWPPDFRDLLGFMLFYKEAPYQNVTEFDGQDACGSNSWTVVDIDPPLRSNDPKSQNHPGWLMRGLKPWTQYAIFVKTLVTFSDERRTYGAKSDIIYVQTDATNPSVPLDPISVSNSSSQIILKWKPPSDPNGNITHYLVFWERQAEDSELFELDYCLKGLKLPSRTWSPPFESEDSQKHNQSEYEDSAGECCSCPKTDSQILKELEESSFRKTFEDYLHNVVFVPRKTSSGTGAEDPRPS
Sequence (P06213 763-1382 limits assumed): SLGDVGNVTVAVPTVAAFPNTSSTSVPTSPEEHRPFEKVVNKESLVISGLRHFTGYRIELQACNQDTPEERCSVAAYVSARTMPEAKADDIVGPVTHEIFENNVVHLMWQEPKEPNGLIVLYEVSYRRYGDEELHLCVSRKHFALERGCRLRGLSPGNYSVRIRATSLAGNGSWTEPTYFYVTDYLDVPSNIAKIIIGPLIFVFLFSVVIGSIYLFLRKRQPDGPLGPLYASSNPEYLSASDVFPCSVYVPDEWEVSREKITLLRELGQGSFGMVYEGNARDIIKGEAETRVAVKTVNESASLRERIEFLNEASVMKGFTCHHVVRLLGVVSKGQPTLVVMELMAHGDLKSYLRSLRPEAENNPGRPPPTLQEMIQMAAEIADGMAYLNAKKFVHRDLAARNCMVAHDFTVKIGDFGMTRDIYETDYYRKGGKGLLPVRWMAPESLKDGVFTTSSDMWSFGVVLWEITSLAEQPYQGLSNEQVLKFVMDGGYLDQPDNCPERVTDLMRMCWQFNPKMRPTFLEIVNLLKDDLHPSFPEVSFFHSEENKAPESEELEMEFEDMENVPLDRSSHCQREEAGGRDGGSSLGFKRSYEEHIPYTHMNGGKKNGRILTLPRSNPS

Row | SMILES | IC50
13 | COc1cc(OC2CCN(C)CC2)ccc1Nc1ncc(Cl)c(Nc2ccccc2P(C)(C)=O)n1 | 343 nM
14 | COc1cc(N2CCC(O)CC2)ccc1Nc1ncc(Cl)c(Nc2ccccc2P(C)(C)=O)n1 | 171 nM

tested on: not listed separately; experiment: Half life in mouse at 10 mg/kg, po by LC-MS/MS analysis; assay type: ADME, organism-based; conditions: in vivo

Row | SMILES | half-life
15 | COc1cc(OC2CCN(C)CC2)ccc1Nc1ncc(Cl)c(Nc2ccccc2P(C)(C)=O)n1 | 96 min
16 | COc1cc(N2CCC(O)CC2)ccc1Nc1ncc(Cl)c(Nc2ccccc2P(C)(C)=O)n1 | 132 min

biological target: T1, ALK tyrosine kinase receptor (Homo sapiens, UniProt Q9UM73); experiment: Inhibition of ALK phosphorylation in mouse xenografted with human KARPAS299 cells assessed as p-ALK level at 25 mg/kg, po administered as single dose measured after 8 hrs relative to 2 hrs vehicle-treated tumor; assay type: organism-based; parameters: scale not given: the % may be the effect or the level left; conditions: KARPAS-299
Target sequence in this assay (Q9UM73 19-1620 limits assumed): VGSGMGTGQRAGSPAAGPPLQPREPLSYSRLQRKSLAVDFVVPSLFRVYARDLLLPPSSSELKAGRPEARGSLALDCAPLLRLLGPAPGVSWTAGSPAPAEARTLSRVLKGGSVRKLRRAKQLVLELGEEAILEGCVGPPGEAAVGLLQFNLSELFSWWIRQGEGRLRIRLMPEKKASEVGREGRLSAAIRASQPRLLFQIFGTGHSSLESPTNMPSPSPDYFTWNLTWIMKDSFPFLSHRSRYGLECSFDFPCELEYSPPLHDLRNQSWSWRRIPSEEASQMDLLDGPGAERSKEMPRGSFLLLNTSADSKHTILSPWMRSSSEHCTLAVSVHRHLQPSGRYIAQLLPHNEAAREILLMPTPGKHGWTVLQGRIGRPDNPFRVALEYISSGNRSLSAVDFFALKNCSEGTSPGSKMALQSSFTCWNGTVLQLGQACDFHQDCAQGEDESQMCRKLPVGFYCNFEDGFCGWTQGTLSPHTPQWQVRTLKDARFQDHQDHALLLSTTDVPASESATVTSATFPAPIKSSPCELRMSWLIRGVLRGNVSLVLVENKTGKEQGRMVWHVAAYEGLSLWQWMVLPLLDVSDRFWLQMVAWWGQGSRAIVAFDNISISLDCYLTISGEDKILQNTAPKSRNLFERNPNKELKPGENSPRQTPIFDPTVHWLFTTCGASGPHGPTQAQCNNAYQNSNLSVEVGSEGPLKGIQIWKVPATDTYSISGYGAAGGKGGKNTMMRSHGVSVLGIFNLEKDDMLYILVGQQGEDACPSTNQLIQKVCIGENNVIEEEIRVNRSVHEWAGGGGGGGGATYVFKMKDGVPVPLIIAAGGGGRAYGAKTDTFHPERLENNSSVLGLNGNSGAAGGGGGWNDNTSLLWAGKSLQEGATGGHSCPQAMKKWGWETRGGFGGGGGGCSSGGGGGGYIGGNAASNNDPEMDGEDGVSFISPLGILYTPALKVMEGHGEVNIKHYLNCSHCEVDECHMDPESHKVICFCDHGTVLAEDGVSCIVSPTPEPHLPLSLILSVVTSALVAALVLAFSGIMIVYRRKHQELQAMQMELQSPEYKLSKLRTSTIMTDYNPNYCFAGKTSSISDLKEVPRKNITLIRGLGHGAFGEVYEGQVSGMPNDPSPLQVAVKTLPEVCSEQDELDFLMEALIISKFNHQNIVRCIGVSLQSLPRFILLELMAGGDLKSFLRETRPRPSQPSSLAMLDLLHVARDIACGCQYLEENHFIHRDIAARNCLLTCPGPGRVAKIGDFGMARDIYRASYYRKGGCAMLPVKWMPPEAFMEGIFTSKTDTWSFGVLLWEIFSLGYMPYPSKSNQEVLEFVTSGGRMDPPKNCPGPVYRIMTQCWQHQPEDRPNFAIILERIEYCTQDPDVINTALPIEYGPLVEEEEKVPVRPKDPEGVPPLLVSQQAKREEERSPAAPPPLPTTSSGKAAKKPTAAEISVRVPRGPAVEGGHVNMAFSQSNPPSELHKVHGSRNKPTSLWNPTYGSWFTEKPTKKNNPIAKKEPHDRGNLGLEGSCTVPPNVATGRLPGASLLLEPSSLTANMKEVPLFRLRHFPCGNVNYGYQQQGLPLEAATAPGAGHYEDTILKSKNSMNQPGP

Row | SMILES | Activity
17 | COc1cc(N2CCC(O)CC2)ccc1Nc1ncc(Cl)c(Nc2ccccc2P(C)(C)=O)n1 | 41%

biological target: T1, ALK tyrosine kinase receptor; experiment: Inhibition of ALK phosphorylation in mouse xenografted with human KARPAS299 cells assessed as p-ALK level at 25 mg/kg, po administered as single dose measured after 10 hrs relative to 2 hrs vehicle-treated tumor; assay type: organism-based; parameters: scale not given: the % may be the effect or the level left; conditions: KARPAS-299
Target sequence in this assay (Q9UM73 19-1620 limits assumed): as above

Row | SMILES | Activity
18 | COc1cc(OC2CCN(C)CC2)ccc1Nc1ncc(Cl)c(Nc2ccccc2P(C)(C)=O)n1 | 23%

tested on: not listed separately; experiment: Cmax in mouse at 10 mg/kg, po by LC-MS/MS analysis; assay type: ADME, organism-based; parameters: dose 10 mg/kg, route oral; conditions: in vivo

Row | SMILES | Cmax
19 | COc1cc(OC2CCN(C)CC2)ccc1Nc1ncc(Cl)c(Nc2ccccc2P(C)(C)=O)n1 | 184 ng/mL
20 | COc1cc(N2CCC(O)CC2)ccc1Nc1ncc(Cl)c(Nc2ccccc2P(C)(C)=O)n1 | 2940 ng/mL

tested on: not listed separately; experiment: animal or person; conditions: Homo sapiens, KARPAS-299, po, 312 h, read-out: TGI
Description: Antitumor activity against human KARPAS299 cells expressing NMP-ALK fusion protein xenografted in SCID/beige mouse assessed as tumor growth inhibition at 50 mg/kg, po administered once daily for 13 days relative to untreated control

Row | SMILES | inhibition in vivo at 50 mg/kg
21 | COc1cc(N2CCC(O)CC2)ccc1Nc1ncc(Cl)c(Nc2ccccc2P(C)(C)=O)n1 | 67%

tested on: not listed separately; experiment: AUC (0 to infinity) in CD rat at 3 mg/kg, iv by LC-MS/MS analysis; assay type: ADME, organism-based; parameters: dose 3 mg/kg, time infinity, route intravenous; conditions: CD, in vivo

Row | SMILES | AUC(0-inf)
22 | COc1cc(OC2CCN(C)CC2)ccc1Nc1ncc(Cl)c(Nc2ccccc2P(C)(C)=O)n1 | 5040 ng·h/mL
23 | COc1cc(N2CCC(O)CC2)ccc1Nc1ncc(Cl)c(Nc2ccccc2P(C)(C)=O)n1 | 4550 ng·h/mL

biological target: T1, ALK tyrosine kinase receptor; experiment: not given; conditions: not given

Row | SMILES | IC50
24 | COc1cc(OC2CCN(C)CC2)ccc1Nc1ncc(Cl)c(Nc2ccccc2P(C)(C)=O)n1 | 0.54 nM
25 | COc1cc(N2CCC(O)CC2)ccc1Nc1ncc(Cl)c(Nc2ccccc2P(C)(C)=O)n1 | 0.36 nM

tested on: not listed separately; experiment: Half life in CD rat at 10 mg/kg, po by LC-MS/MS analysis; assay type: ADME, organism-based; conditions: in vivo

Row | SMILES | half-life
26 | COc1cc(OC2CCN(C)CC2)ccc1Nc1ncc(Cl)c(Nc2ccccc2P(C)(C)=O)n1 | 234 min
27 | COc1cc(N2CCC(O)CC2)ccc1Nc1ncc(Cl)c(Nc2ccccc2P(C)(C)=O)n1 | 162 min

biological target: Insulin-like growth factor 1 receptor (Homo sapiens, UniProt P08069); experiment: not given; conditions: not given
Sequence (P08069 31-736 limits assumed): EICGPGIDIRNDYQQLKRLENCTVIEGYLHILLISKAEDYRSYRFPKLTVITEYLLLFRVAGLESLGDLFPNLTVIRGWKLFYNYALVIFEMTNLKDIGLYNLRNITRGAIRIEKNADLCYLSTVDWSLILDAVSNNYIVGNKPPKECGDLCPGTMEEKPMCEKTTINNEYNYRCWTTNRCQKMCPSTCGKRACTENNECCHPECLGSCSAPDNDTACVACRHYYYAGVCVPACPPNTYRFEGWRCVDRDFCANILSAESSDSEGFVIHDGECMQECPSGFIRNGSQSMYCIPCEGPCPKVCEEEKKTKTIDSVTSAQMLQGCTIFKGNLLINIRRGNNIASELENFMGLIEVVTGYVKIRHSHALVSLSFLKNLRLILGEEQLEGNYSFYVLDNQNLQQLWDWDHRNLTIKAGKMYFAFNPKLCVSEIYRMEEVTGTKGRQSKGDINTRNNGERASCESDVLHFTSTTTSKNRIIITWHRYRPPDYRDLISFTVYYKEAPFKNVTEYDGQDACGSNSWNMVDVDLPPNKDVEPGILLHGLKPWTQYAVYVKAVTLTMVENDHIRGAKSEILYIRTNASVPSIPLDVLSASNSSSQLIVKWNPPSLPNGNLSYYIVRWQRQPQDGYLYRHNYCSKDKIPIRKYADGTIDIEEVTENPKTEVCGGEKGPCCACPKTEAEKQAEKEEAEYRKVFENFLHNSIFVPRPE
Sequence (P08069 741-1367 limits assumed): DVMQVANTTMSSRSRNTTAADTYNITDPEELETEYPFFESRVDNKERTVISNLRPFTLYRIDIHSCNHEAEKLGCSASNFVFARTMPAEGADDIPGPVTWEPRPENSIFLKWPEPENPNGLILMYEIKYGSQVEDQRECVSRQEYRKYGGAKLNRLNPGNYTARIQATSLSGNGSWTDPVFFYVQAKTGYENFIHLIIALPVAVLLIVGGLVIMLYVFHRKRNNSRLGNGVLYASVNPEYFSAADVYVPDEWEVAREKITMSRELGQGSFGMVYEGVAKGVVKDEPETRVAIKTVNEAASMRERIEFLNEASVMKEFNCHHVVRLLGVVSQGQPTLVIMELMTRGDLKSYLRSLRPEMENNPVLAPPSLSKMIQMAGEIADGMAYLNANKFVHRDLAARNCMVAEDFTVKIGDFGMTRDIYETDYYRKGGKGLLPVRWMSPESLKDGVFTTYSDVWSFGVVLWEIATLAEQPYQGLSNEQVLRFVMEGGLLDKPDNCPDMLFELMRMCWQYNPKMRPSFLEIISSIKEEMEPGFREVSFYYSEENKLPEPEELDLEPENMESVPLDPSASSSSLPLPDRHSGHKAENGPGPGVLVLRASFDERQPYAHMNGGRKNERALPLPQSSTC

Row | SMILES | IC50
28 | COc1cc(OC2CCN(C)CC2)ccc1Nc1ncc(Cl)c(Nc2ccccc2P(C)(C)=O)n1 | 86.5 nM
29 | COc1cc(N2CCC(O)CC2)ccc1Nc1ncc(Cl)c(Nc2ccccc2P(C)(C)=O)n1 | 26.9 nM

tested on: not listed separately; experiment: animal or person; conditions: Homo sapiens, KARPAS-299, po, 312 h, read-out: TGI; remark: another data set of the same source
Description: Antitumor activity against human KARPAS299 cells expressing NMP-ALK fusion protein xenografted in SCID/beige mouse assessed as tumor growth inhibition at 10 mg/kg, po administered once daily for 13 days relative to untreated control

Row | SMILES | inhibition in vivo at 10 mg/kg
30 | COc1cc(N2CCC(O)CC2)ccc1Nc1ncc(Cl)c(Nc2ccccc2P(C)(C)=O)n1 | 96%

tested on: not listed separately; experiment: Half life in CD rat at 3 mg/kg, iv by LC-MS/MS analysis; assay type: ADME, organism-based; conditions: CD, in vivo

Row | SMILES | half-life
31 | COc1cc(OC2CCN(C)CC2)ccc1Nc1ncc(Cl)c(Nc2ccccc2P(C)(C)=O)n1 | 216 min
32 | COc1cc(N2CCC(O)CC2)ccc1Nc1ncc(Cl)c(Nc2ccccc2P(C)(C)=O)n1 | 336 min

tested on: not listed separately; experiment: cells; conditions: Homo sapiens, U-937, 72 h
Description: Antiproliferative activity against human ALK-negative U937 cells assessed as reduction in cell viability measured after 72 hrs by CellTiter 96 aqueous one solution cell proliferation assay

Row | SMILES | IC50
33 | COc1cc(OC2CCN(C)CC2)ccc1Nc1ncc(Cl)c(Nc2ccccc2P(C)(C)=O)n1 | 4.52 µM
34 | COc1cc(N2CCC(O)CC2)ccc1Nc1ncc(Cl)c(Nc2ccccc2P(C)(C)=O)n1 | 7.23 µM

tested on: not listed separately; experiment: Tmax in CD rat at 10 mg/kg, po by LC-MS/MS analysis; assay type: ADME, organism-based; conditions: in vivo

Row | SMILES | Tmax
35 | COc1cc(OC2CCN(C)CC2)ccc1Nc1ncc(Cl)c(Nc2ccccc2P(C)(C)=O)n1 | 4 h
36 | COc1cc(N2CCC(O)CC2)ccc1Nc1ncc(Cl)c(Nc2ccccc2P(C)(C)=O)n1 | 0.25 h

biological target: T1, ALK tyrosine kinase receptor; experiment: Inhibition of ALK phosphorylation in mouse xenografted with human KARPAS299 cells assessed as p-ALK level at 25 mg/kg, po administered as single dose measured after 16 hrs relative to 2 hrs vehicle-treated tumor; assay type: organism-based; parameters: scale not given: the % may be the effect or the level left; conditions: KARPAS-299
Target sequence in this assay (Q9UM73 19-1620 limits assumed): as the sequence (Q9UM73 19-1620 limits assumed) above

Row | SMILES | Activity
37 | COc1cc(OC2CCN(C)CC2)ccc1Nc1ncc(Cl)c(Nc2ccccc2P(C)(C)=O)n1 | 125%
38 | COc1cc(N2CCC(O)CC2)ccc1Nc1ncc(Cl)c(Nc2ccccc2P(C)(C)=O)n1 | 25%

tested on: not listed separately; experiment: AUC (0 to infinity) in CD rat at 10 mg/kg, po by LC-MS/MS analysis; assay type: ADME, organism-based; parameters: dose 10 mg/kg, route oral, time infinity; conditions: in vivo

Row | SMILES | AUC(0-inf)
39 | COc1cc(OC2CCN(C)CC2)ccc1Nc1ncc(Cl)c(Nc2ccccc2P(C)(C)=O)n1 | 9220 ng·h/mL
40 | COc1cc(N2CCC(O)CC2)ccc1Nc1ncc(Cl)c(Nc2ccccc2P(C)(C)=O)n1 | 9720 ng·h/mL

biological target: T1, ALK tyrosine kinase receptor; experiment: Inhibition of ALK phosphorylation in mouse xenografted with human KARPAS299 cells assessed as p-ALK level at 25 mg/kg, po administered as single dose measured after 24 hrs relative to 2 hrs vehicle-treated tumor; assay type: organism-based; parameters: scale not given: the % may be the effect or the level left; conditions: KARPAS-299
Target sequence in this assay (Q9UM73 19-1620 limits assumed): as above

Row | SMILES | Activity
41 | COc1cc(OC2CCN(C)CC2)ccc1Nc1ncc(Cl)c(Nc2ccccc2P(C)(C)=O)n1 | 160%
42 | COc1cc(N2CCC(O)CC2)ccc1Nc1ncc(Cl)c(Nc2ccccc2P(C)(C)=O)n1 | 168%

tested on: not listed separately; experiment: animal or person; conditions: Homo sapiens, KARPAS-299, po, 312 h, read-out: TGI; remark: another data set of the same source
Description: Antitumor activity against human KARPAS299 cells expressing NMP-ALK fusion protein xenografted in SCID/beige mouse assessed as tumor growth inhibition at 25 mg/kg, po administered once daily for 13 days relative to untreated control

Row | SMILES | inhibition in vivo at 25 mg/kg
43 | COc1cc(N2CCC(O)CC2)ccc1Nc1ncc(Cl)c(Nc2ccccc2P(C)(C)=O)n1 | 85%
